How the values were obtained:
[1] = Pharmacokinetics test (hepatic microsome stability test); details: human hepatic microsome 1 mg/mL, 37° C., 60 min, 1 μmol/L
rat EP4 receptor = rat EP4 receptor (Rattus norvegicus (Rat), UniProt P43114); test: EP4 antagonistic activity measurement using prostanoid receptor subtype expressing cells (cAMP); format: cell-based; details: CHO cells expressing rat EP4 receptor; inhibition of cAMP production by PGE2 10 nM
Protocol: CHO cells expressing rat EP4 receptor subtypes were prepared according to the methods of Nishigaki et al. (FEBS Letters, Vol. 364, p. 339-341, 1995), and used for experiment. Cultured subconfluent cells were detached, and suspended in an assay medium (MEM containing 1 mmol/L IBMX, 1% HSA) in a concentration of 1×10^6 cells/mL. For reaction, PGE2 was added to the cell suspension (25 μL) in a final concentration of 10 nmol/L, either alone or as a 25-μL PGE2 solution containing the test compound. After 30 minutes of reaction at room temperature, the amount of cAMP in the cells was quantified according to the method in the descriptions of the cAMP assay kit (CISBIO).
The antagonistic effect (IC50 value) of the test compound was calculated as a value that represents an inhibition rate against a reaction with PGE2 alone at 10 nM, a concentration that produces a submaximal cAMP producing effect.

rat EP4 receptor, sequence (P43114 whole entry): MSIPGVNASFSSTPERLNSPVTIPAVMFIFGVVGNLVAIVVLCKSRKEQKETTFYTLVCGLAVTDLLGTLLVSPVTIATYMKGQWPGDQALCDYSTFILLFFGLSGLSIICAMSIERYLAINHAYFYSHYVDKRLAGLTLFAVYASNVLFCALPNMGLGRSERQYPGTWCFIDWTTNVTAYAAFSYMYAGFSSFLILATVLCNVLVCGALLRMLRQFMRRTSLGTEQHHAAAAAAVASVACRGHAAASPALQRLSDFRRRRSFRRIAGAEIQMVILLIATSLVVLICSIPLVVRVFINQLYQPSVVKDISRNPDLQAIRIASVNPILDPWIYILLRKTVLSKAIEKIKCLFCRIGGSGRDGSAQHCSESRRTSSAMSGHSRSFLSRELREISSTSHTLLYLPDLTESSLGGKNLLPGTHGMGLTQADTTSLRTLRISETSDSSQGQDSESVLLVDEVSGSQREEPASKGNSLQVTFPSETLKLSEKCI

Row | SMILES | Remaining rate (%) [1] | IC50 (rat EP4 receptor)
1 | CC(C)(C)NC(=O)c1ccc2c(c1)[C@]1(CCO2)C[C@H]1C(=O)Nc1cc(C#N)ccc1CCCC(=O)O [Example 2-3, 4-{4-Cyano-2-[({(2′R, 4S)-6-[(2-methyl-2-propanyl)carbamoyl]-2,3-dihydrospiro[chromene-4,1′-cyclopropan]-2′-yl}carbonyl)amino]phenyl}butanoic acid] | 91% | 3.5 nM
2 | COC[C@H](C)NC(=O)c1ccc2c(c1)[C@]1(CCO2)C[C@H]1C(=O)Nc1cc(C#N)ccc1CCCC(=O)O [Example 2-4, 4-[4-Cyano-2-({[(2′R,4S)-6-{[(2S)-1-methoxy-2-propanyl]carbamoyl}-2,3-dihydrospiro[chromene-4,1′-cyclopropan]-2′-yl]carbonyl}amino)phenyl]butanoic acid] | 86% | 3.3 nM
3 | Cn1ccc(NC(=O)c2ccc3c(c2)[C@]2(CCO3)C[C@H]2C(=O)Nc2cc(C#N)ccc2CCCC(=O)O)n1 [Example 2-9, 4-{4-Cyano-2-[({(2′R,4S)-6-[(1-methyl-1H-pyrazol-yl)carbamoyl]-2,3-dihydrospiro[chromene-4,1′-cyclopropan]-2′-yl}carbonyl)amino]phenyl}butanoic acid] | 92% | 4.5 nM
4 | N#Cc1ccc(CCCC(=O)O)c(NC(=O)[C@@H]2C[C@]23CCOc2ccc(C(=O)NC4CC4)cc23)c1 [Example 2-10, 4-[4-cyano-2-({[(2′R,4S)-6-(cyclopropylcarbamoyl)-2,3-dihydrospiro[chromene-4,1′-cyclopropan]-2′-yl]carbonyl}amino)phenyl]butanoic acid] | 94% | 4 nM
5 | N#Cc1ccc(CCCC(=O)O)c(NC(=O)[C@@H]2C[C@]23CCOc2ccc(C(=O)Nc4ccccn4)cc23)c1 [Example 2-23, 4-[4-Cyano-2-({[(2′R,4S)-6-(2-pyridinylcarbamoyl)-2,3-dihydrospiro[chromene-4,1′-cyclopropan]-2′-yl]carbonyl}amino)phenyl]butanoic acid] | 100% | 4.5 nM
6 | N#Cc1ccc(CCCC(=O)O)c(NC(=O)[C@@H]2C[C@]23CCOc2ccc(C(=O)Nc4ccon4)cc23)c1 [Example 2-37, 4-[4-Cyano-2-({[(2′R,4S)-6-(1,2-oxazol-3-ylcarbamoyl)-2,3-dihydrospiro[chromene-4,1′-cyclopropan]-2′-yl]carbonyl}amino)phenyl]butanoic acid] | 97% | 3.4 nM
7 | CC(C)(C)n1cc(NC(=O)c2ccc3c(c2)[C@]2(CCO3)C[C@H]2C(=O)Nc2cc(C#N)ccc2CCCC(=O)O)cn1 [Example 2-39, 4-[4-Cyano-2-({[(2′R,4S)-6-{[1-(2-methyl-2-propanyl)-1H-pyrazol-4-yl]carbamoyl}-2,3-dihydrospiro[chromene-4,1′-cyclopropan]-2′-yl]carbonyl}amino)phenyl]butanoic acid] | 90% | 3.4 nM
8 | N#Cc1ccc(CCCC(=O)O)c(NC(=O)[C@@H]2C[C@]23CCOc2ccc(C(=O)NC4CCOCC4)cc23)c1 [Example 2-40, 4-[4-Cyano-2-({[(2′R,4S)-6-(tetrahydro-2H-pyran-4-ylcarbamoyl)-2,3-dihydrospiro[chromene-4,1′-cyclopropan]-2′-yl]carbonyl}amino)phenyl]butanoic acid] | 100% | 7.2 nM
9 | CCCNC(=O)c1ccc2c(c1)[C@]1(CCO2)C[C@H]1C(=O)Nc1cc(C#N)ccc1CCCC(=O)O [Example 2-44, 4-[4-Cyano-2-({[(2′R,4S)-6-(propylcarbamoyl)-2,3-dihydrospiro[chromene-4,1′-cyclopropan]-2′-yl]carbonyl}amino)phenyl]butanoic acid] | 100% | 2.5 nM
10 | CCNC(=O)c1ccc2c(c1)[C@]1(CCO2)C[C@H]1C(=O)Nc1cc(C#N)ccc1CCCC(=O)O [Example 2-46, 4-[4-Cyano-2-({[(2′R,4S)-6-(ethylcarbamoyl)-2,3-dihydrospiro[chromene-4,1′-cyclopropan]-2′-yl]carbonyl}amino)phenyl]butanoic acid] | 90% | 3 nM
11 | Cc1nnc(-c2ccc3c(c2)[C@]2(CCO3)C[C@H]2C(=O)Nc2cc(C#N)ccc2CCCC(=O)O)o1 [Example 3, 4-[4-Cyano-2-({[(2′R,4S)-6-(5-methyl-1,3,4-oxadiazol-2-yl)-2,3-dihydrospiro[chromene-4,1′-cyclopropan]-2′-yl]carbonyl}amino)phenyl]butanoic acid] | 100% | 2.7 nM
12 | N#Cc1ccc(CCCC(=O)O)c(NC(=O)[C@@H]2C[C@]23CCOc2ccc(-c4ccccc4)cc23)c1 [Example 7-1, 4-[4-Cyano-2-({[(2′R,4S)-6-phenyl-2,3-dihydrospiro[chromene-4,1′-cyclopropan]-2′-yl]carbonyl}amino)phenyl]butanoic acid] | 81% | 17 nM

Next, values leading:

Row | Remaining rate (%) [1] | IC50 (rat EP4 receptor) | SMILES
13 | 94% | 2.5 nM | CNC(=O)c1ccc2c(c1)[C@]1(CCO2)C[C@H]1C(=O)Nc1cc(C#N)ccc1CCCC(=O)O [Example 1, 4-[4-Cyano-2-({[(2′R,4S)-6-(methylcarbamoyl)-2,3-dihydrospiro[chromene-4,1′-cyclopropan]-2′-yl]carbonyl}amino)phenyl]butanoic acid]
14 |  | 1.3 nM | Cn1cc(NC(=O)c2ccc3c(c2)[C@]2(CCO3)C[C@H]2C(=O)Nc2cc(C#N)ccc2CCCC(=O)O)cn1 [Example 2-5]
15 | 96% | 4.5 nM | N#Cc1ccc(CCCC(=O)O)c(NC(=O)[C@@H]2C[C@]23CCOc2ccc(C(=O)NC4CCCC4)cc23)c1 [Example 2-14, 4-[4 Cyano 2-({[(2′R,4S)-6-(cyclopentylcarbamoyl)-2,3-dihydrospiro[chromene-4,1′-cyclopropan]-2′-yl]carbonyl}amino)phenyl]butanoic acid]
16 | 80% | 2.5 nM | N#Cc1ccc(CCCC(=O)O)c(NC(=O)[C@@H]2C[C@]23CCOc2ccc(C(=O)Nc4cccnn4)cc23)c1 [Example 2-29, 4-[4-Cyano-2-({[(2′R,4S)-6-(3-pyridazinylcarbamoyl)-2,3-dihydrospiro[chromene-4,1′-cyclopropan]-2′-yl]carbonyl}amino)phenyl]butanoic acid]
17 | 85% | 3.7 nM | N#Cc1ccc(CCCC(=O)O)c(NC(=O)[C@@H]2C[C@]23CCOc2ccc(C(=O)NCC(F)F)cc23)c1 [Example 2-32, 4-{4-Cyano-2-[({(2′R,4S)-6-[(2,2-difluoroethyl)carbamoyl]-2,3-dihydrospiro[chromene-4,1′-cyclopropan]-2′-yl}carbonyl)amino]phenyl}butanoic acid]
18 | 89% | 9.7 nM | CN1CC[C@H](NC(=O)c2ccc3c(c2)[C@]2(CCO3)C[C@H]2C(=O)Nc2cc(C#N)ccc2CCCC(=O)O)C1 [Example 2-33, 4-[4-Cyano-2-({[(2′R,4S)-6-{[(3S)-1-methyl-3-pyrrolidinyl]carbamoyl}-2,3-dihydrospiro[chromene-4,1′-cyclopropan]-2′-yl]carbonyl}amino)phenyl]butanoic acid]
19 | 100% | 5.4 nM | N#Cc1ccc(CCCC(=O)O)c(NC(=O)[C@@H]2C[C@]23CCOc2ccc(C(=O)Nc4ncccn4)cc23)c1 [Example 2-36, 4-[4-Cyano-2-({[(2′R,4S)-6-(2-pyrimidinylcarbamoyl)-2,3-dihydrospiro[chromene-4,1′-cyclopropan]-2′-yl]carbonyl}amino)phenyl]butanoic acid]
20 | 100% | 4.7 nM | N#Cc1ccc(CCCC(=O)O)c(NC(=O)[C@@H]2C[C@]23CCOc2ccc(C(=O)NC4CCC4)cc23)c1 [Example 2-38, 4-[4-Cyano-2-({[(2′R,4S)-6-(cyclobutylcarbamoyl)-2,3-dihydrospiro[chromene-4,1′-cyclopropan]-2′-yl]carbonyl}amino)phenyl]butanoic acid]
21 | 100% | 3.4 nM | N#Cc1ccc(CCCC(=O)O)c(NC(=O)[C@@H]2C[C@]23CCOc2ccc(C(=O)Nc4ccno4)cc23)c1 [Example 2-41, 4-[4-Cyano-2-({[(2′R,4S)-6-(1,2-oxazol-5-ylcarbamoyl)-2,3-dihydrospiro[chromene-4,1′-cyclopropan]-2′-yl]carbonyl}amino)phenyl]butanoic acid]
22 | 100% | 3.6 nM | Cn1nccc1NC(=O)c1ccc2c(c1)[C@]1(CCO2)C[C@H]1C(=O)Nc1cc(C#N)ccc1CCCC(=O)O [Example 2-43, 4-{4-Cyano-2-[({(2′R,4S)-6-[(1-methyl-1H-pyrazol-5-yl)carbamoyl]-2,3-dihydrospiro[chromene-4,1′-cyclopropan]-2′-yl}carbonyl)amino]phenyl}butanoic acid]
23 | 100% | 8.3 nM | CCOCCNC(=O)c1ccc2c(c1)[C@]1(CCO2)C[C@H]1C(=O)Nc1cc(C#N)ccc1CCCC(=O)O [Example 2-45, 4-{4-Cyano-2-[({(2′R,4S)-6-[(2-ethoxyethyl)carbamoyl]-2,3-dihydrospiro[chromene-4,1′-cycopropan]-2′-yl}carbonyl)amino]phenyl}butanoic acid]
24 | 80% | 2.8 nM | Cc1noc(-c2ccc3c(c2)[C@]2(CCO3)C[C@H]2C(=O)Nc2cc(C#N)ccc2CCCC(=O)O)n1 [Example 5, 4-[4-Cyano-2-({[(2′R,4S)-6-(3-methyl-1,2,4-oxadiazol-5-yl)-2,3-dihydrospiro[chromene-4,1′-cyclopropan]-2′-yl]carbonyl}amino)phenyl]butanoic acid]

Reference: patent US10077247B2, “Tricyclic spiro compound” (ONO PHARMACEUTICAL CO., LTD., priority 2015, dated 2018)
